Experimental data reported in patent publication US20260176249A1, “PROTEIN KINASE INHIBITOR, PREPARATION METHOD THEREFOR, AND APPLICATION THEREOF” (SHANDONG LUYE PHARMACEUTICAL CO., LTD., priority 2021, published 2026).

Legend:
[1] = target: T1, PLK1 kinase (Homo sapiens, UniProt P53350); assay: Inhibitory activity on PLK1 kinase; assay type: biochemical; conditions: for IC50: PLK1 kinase, highest concentration 1 μM, 10 points, read-out: IC50; for Imax: maximum effect caused by the compound at the test concentration
T1 construct: purchased Carnabio (Carna Biosciences) 05-157
Protocol: Detection solution PerkinElmer #TRF0218-M
Detection instrument PerkinElemer EnVision
a. Using the Echo machine, the compounds to be tested were diluted by 1:3 on a 384-well plate, and the highest concentration was 1 μM, with a total of 10 concentration points, and each concentration was tested in duplicate wells.
b. 5 μL/well of PLK1 kinase and peptide substrate mixture were added to the assay plate (containing controls).
d. The reaction was initiated by adding 5 μL/well of ATP solution;
e. The assay plate was centrifuged at 1000 rpm for about 15 seconds, a film was used to seal the assay plate which was incubated at 23° C. for a period of time;
f. A detection solution was added to all wells of the assay plate;
g. The assay plate was centrifuged at 1000 rpm for approximately 15 seconds, a film was used to seal the assay plate which was incubated at 23° C. for 60 min.
h. The assay plate was read on EnVision. The test results were analyzed using XLFIT5 software.

[2] = Metabolic stability in mouse liver microsomes; assay type: in vitro ADME; conditions: for CLint scaled at 1 µM / half-life at 1 µM / microsomal CLint at 1 µM: mouse; for CLint scaled at 1 µM / half-life at 1 µM: pH 7.4; for microsomal CLint at 1 µM: pH 7.4, read-out: CLint(mic)
How it was run: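 Compounds incubated at 37 °C with mouse, rat or human liver microsomes in 100 mM phosphate buffer pH 7.4, started with NADPH/MgCl2 and sampled at 0–60 min. Parent remaining quantified by LC-MS. T1/2 and CLint(mic) derived from depletion, scaled to CLint using 45 mg protein/g liver and species liver/body weight ratios.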

[3] = system: HCT116 cells; assay: In vivo pharmacodynamic study of compound 1 in HCT116 tumor-bearing mice; parameters: species or system Balb/C Nude mice; conditions: 20 mg/kg once a day by gavage, vs sham group
Description: Balb/C Nude mice, SPF grade, male, weighing 18-20 g, were purchased from Jiangsu Gempharmatech Co., Ltd.
HCT116 cells were purchased from ATCC.
Matrigel Matrix, Cat. No. 354248, was purchased from Becton, Dickinson and Company.
Kolliphor® HS 15, Cat. No. 42966, was purchased from Sigma-Aldrich.
(§1) a. Establishment of tumor-bearing mouse model: HCT116 cells in the logarithmic growth phase were taken and cultured, the cells were collected and counted, and then subcutaneously inoculated into Balb/C Nude mice at 1×10^6/mouse. The tumor volume and body weight of the mice were measured regularly. 7 days after inoculation, mice with tumor volume of 150 mm3 were randomly divided into groups and treated with corresponding drugs.
b. […] The administration was performed once a day by gavage for 21 consecutive days, and the tumor volume and body weight of the mice were measured regularly.
(§2) 3. Data processing: All data were organized in EXCEL, and One-way ANOVA analysis and drawing were performed using GraphPad Prism 8.0 software. Statistical significance was achieved when p<0.05.

[4] = system: HCT116 cells; assay: In vivo pharmacodynamic study of compound 18 in HCT116 tumor-bearing mice; parameters: species or system Balb/C Nude mice; conditions: 60 mg/kg once a day by gavage
Protocol: as §1, §2
1. Experiment materials: Same as Test example 5.
a. Establishment of tumor-bearing mouse model: Same as Test example 5.
b. […] The administration was performed once a day by gavage for 7 consecutive days, and the tumor volume and body weight of the mice were measured regularly.
3. Data processing: Same as Test example 5.

T1 sequence (P53350 whole entry): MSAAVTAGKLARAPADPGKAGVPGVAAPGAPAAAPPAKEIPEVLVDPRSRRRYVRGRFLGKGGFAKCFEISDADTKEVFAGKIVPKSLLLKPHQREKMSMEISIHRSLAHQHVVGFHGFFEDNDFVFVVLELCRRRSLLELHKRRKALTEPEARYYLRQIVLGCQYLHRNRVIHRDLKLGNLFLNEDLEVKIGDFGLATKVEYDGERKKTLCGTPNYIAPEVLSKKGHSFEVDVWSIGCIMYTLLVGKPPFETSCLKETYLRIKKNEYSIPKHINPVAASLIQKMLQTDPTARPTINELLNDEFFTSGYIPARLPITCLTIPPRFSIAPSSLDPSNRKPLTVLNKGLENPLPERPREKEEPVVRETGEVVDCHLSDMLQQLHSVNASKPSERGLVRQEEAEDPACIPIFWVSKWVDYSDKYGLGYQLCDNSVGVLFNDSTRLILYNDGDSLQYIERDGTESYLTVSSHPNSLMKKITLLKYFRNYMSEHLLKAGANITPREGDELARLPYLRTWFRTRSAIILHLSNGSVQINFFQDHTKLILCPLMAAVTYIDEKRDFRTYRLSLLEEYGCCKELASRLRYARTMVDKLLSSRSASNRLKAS

SMILES	IC50 [1] [nM]	Imax [1] [%]	60 min remaining amount [2] [%]	Clearance rate [2]	CLint scaled at 1 µM [2] [mL/min/kg]	half-life at 1 µM [2] [min]	microsomal CLint at 1 µM [2] [µL/min/mg]	tumor inhibition rate ([3]; 11 days) [%]	tumor inhibition rate ([3]; 16 days) [%]	tumor inhibition rate ([3]; 21 days) [%]	body weight decrease compared to before administration ([4]; 5 days) [%]	body weight decrease compared to before administration ([4]; 7 days) [%]	tumor inhibition rate ([4]; 7 days, vs control group) [%]
CN1CCN(c2ccc(OC(F)(F)F)c(Nc3ncc4c(n3)-c3c(c(C(N)=O)cn3CCO)CC4)c2)CC1 [Compound 2]	0.99	99.81	26.7	Medium	175	31.4	44.2						
CN1CCN(c2ccc(OC(F)(F)F)c(Nc3ncc4c(n3)-c3c(c(C(N)=O)nn3CCC#N)CC4)c2)CC1 [Compound 4]	1.64	99.51	1.33	High	1230	4.47	310						
CN1CCN(c2ccc(OC(F)(F)F)c(Nc3ncc4c(n3)-c3c(c(C(=O)NN)nn3CCO)CC4)c2)CC1 [Compound 13]	2.49	99.41	38.6	Medium	123	44.7	31						
Cn1nc(C(N)=O)c2ccc3cnc(Nc4cc(N5CCN(CCO)CC5)ccc4OC(F)(F)F)nc3c21 [Compound 16]	4.77	98.76	24.6	Medium	184	29.9	46.4						
Cn1nc(C(N)=O)c2c1-c1nc(Nc3cc(N4CCN(CCO)CC4)ccc3OC(F)(F)F)ncc1CC2 [Compound 20]	1.28	99.29	15.9	High	238	23.1	60						
CN1CCN(c2ccc(OCC(F)(F)F)c(Nc3ncc4c(n3)-c3c(c(C(N)=O)nn3CCO)CC4)c2)CC1 [Compound 24]	1.21	99.48	58.2	Medium	74.4	73.7	18.8						
CN1CCN(c2ccc(OC(F)(F)F)c(Nc3ncc4c(n3)-c3c(c(C(N)=O)nn3CCO)CC4)c2)CC1 [Onvansertib, reference compound]		100.02	21.5	Medium	202	27.2	51	54.9	39.6	37.0	8.4	19.5	62.7
